Laboratory results from patent publication US5811083A, “Tocopherol derivatives for use in cosmetic compositions” (Estee Lauder, Inc., priority 1996, dated 1998).
Entries after “also recorded” stand apart in the source; their conditions may differ.

Legend:
[1] = test system: UV-induced lipid peroxidation; assay: in vitro liposomal/UV assay, inhibition of UV-induced lipid peroxidation; format: biochemical
Procedure: The antioxidant potential and stability of equimolar concentrations of tocopherol-cysteamine, cysteamine, and a α-tocopherol were compared using an in vitro liposomal/UV assay. This assay provides an effective means of measuring an antioxidant's potential to inhibit UV-induced lipid peroxidation which may correlate with the antioxidant's inhibition of free radical generation in the skin. […] The antioxidant contribution of cysteamine to the derivative was tested by measuring cysteamine alone and determined to be 20.1%.

[2] = ambient temperatures, over a period of one week; cited from earlier work
[3] = test system: lipid peroxidation, human skin; assay: clinical study, lipid peroxides in ethanol washes of ventral forearms after topical cream; format: in vivo; settings: for average level of peroxides, 500 mJ/cm^2 + Ao: UVB 500 mJ/cm^2; for average level of peroxides, 0 + Ao: not irradiated
Procedure: A clinical study was undertaken in order to measure the effectiveness of topically applied compositions containing tocopherol-cysteamine on human skin. Protection against lipid peroxidation was used as a biological marker in a study of twenty subjects.
A cream containing 0.10% tocopherol-cysteamine and other antioxidants was prepared using the batch formulation of Table III.
The cream containing 0.10% tocopherol-cysteamine was applied by the panelists to their left ventral forearms twice daily. The same cream formulation without any antioxidants was used as the control and applied to the right ventral forearms. At 0, 4, 8 and 12 weeks, ethanol washes were taken and samples aliquoted for endogenous levels of lipid peroxides, susceptibility to lipid peroxidation by UVB irradiation at 500 mJ/cm^2, and lipid analysis.

[4] = test system: UV-induced lipid peroxidation; assay: UV/liposomal assay of anti-oxidant activity after storage for five years at ambient temperatures; format: biochemical; settings: for Inhibition: average of two separate assays performed in duplicate; for retention of antioxidant activity on storage: dry powder form, ambient temperatures, five years
Procedure: The tocopherol sample used in this assay was freshly prepared and stored under argon gas in a sealed amber ampoule at -20° C. […] In contrast, the tocopherol-cysteamine samples used in the assay were stored in dry powder form at ambient temperatures for more than five years. […] In particular, several materials, including two batches of tocopherol-cysteamine, were tested for anti-oxidant activity using a UV/liposomal assay. The results reported below represent the average of two separate assays performed in duplicate.

[5] = cited from earlier work
[6] = week 0, cream 0.10% tocopherol-cysteamine and other antioxidants
[7] = week 4, cream 0.10%, twice daily
[8] = week 8, cream 0.10%, twice daily
[9] = week 12, cream 0.10%, twice daily

## NCCS [Cysteamine, cysteamine, reference compound]
[1]; 0.18 mM
  % Inhibition (UV-induced lipid peroxidation): 20.1%

## Cc1c(C)c2c(c(C)c1O)CCC(C)(CCCC(C)CCCC(C)CCCC(C)C)O2 (stereo not drawn) [Tocopherol, α-Tocopherol]
[2]
  loss of antioxidant potency on storage: lose its antioxidant potency, and in fact become a pro-oxidant; also recorded: gradually lose antioxidant potency and become a prooxidant
[1]; 0.18 mM
  % Inhibition (UV-induced lipid peroxidation): 28.9%

## Cc1c(C)c2c(c(C)c1O)CCC(C)(C(=O)NCCS)O2 (stereo not drawn) [Tocopherol-cysteamine]
[3]; 8 weeks vs 0 time point, p value less than 0.1
  amount of endogenous peroxides, week 8 vs week 0: significant decrease
[3]; 8 weeks vs 0 time point, p<0.01, t test
  amount of peroxides generated by UVB, week 8 vs week 0: significant decrease
[3]; 12 week time point, control and irradiated preparations
  average values vs untreated samples, 12 weeks: lower than the untreated samples
[3]; irradiated, treated arms
  peroxide levels after irradiation over the course of treatment: decreased over the course of treatment
[3]; treated but not irradiated
  average endogenous peroxide levels over time: decreased over time
[3]; [6]
  average level of peroxides, 500 mJ/cm^2 + Ao: 17.69
  average level of peroxides, 0 + Ao: 9.10
[3]; [7]
  average level of peroxides, 500 mJ/cm^2 + Ao: 12.95
  average level of peroxides, 0 + Ao: 8.19
[3]; [8]
  average level of peroxides, 500 mJ/cm^2 + Ao: 10.33
  average level of peroxides, 0 + Ao: 6.56
[3]; [9]
  average level of peroxides, 500 mJ/cm^2 + Ao: 26.67
  average level of peroxides, 0 + Ao: 21.19
[4]; 0.010%, 5 year-old vs new batch
  activity of 5 year-old vs new batch: very similar
[4]; 5 year-old, 0.010%
  Inhibition: 57.3%
[4]
  retention of antioxidant activity on storage: did not lose significant antioxidant activity over this five year period
[4]; listed as tocopheryl-cysteamine
  retention of antioxidant activity on storage: does not lose any significant anti-oxidant activity
[4]; new batch, 0.010%
  Inhibition: 65.6%
[4]; storage at ambient temperatures
  stability compared with α-tocopherol: considerably more stable
[1]; 0.18 mM
  % Inhibition (UV-induced lipid peroxidation): 67.3%
[1]; equimolar, 0.18 mM
  antioxidant activity vs α-tocopherol and cysteamine assays combined: greater than that activity observed in both the α-tocopherol and cysteamine assays combined
[1]; triplicate samplings assayed in duplicate
  average inhibition of UV-induced lipid peroxidation, previous experiments: 65.2% (+/-3.61)

## Cc1c(C)c2c(c(C)c1O)CCC(C)(C(=O)O)O2 (stereo not drawn) [Trolox-C, 6-hydroxy-2,5,7,8-tetra-methylchroman-2-carboxylic acid]
[5]; Schaal thin layer oven and AOM tests
  antioxidant activity vs α-tocopherol and other commercial food antioxidants (butylated hydroxytoluene, butylated hydroxyanisole): greater antioxidant activity than α-tocopherol and other commercial food antioxidants
[5]; vegetable oils and animal fats
  antioxidant effectiveness in vegetable oils and animal fats: extremely effective antioxidant
